Like-named read-outs stand apart in the source and are kept apart here.
What was measured:
[1] = target: P-gp (P-glycoprotein, MDR1) (Homo sapiens (Human), UniProt P08183); experiment: MDCKII-MDR1 permeability, efflux ratio; format: in vitro ADME; conditions: dog, MDCK-MDR1, pH 7.4, MDCKII-MDR1 cells, read-out: ER MDR1
Experimental: The blood brain barrier (BBB) separates circulating blood from the extracellular fluid of the central nervous system (CNS). The passive membrane permeability (Papp) and the P-gp (P-glycoprotein) substrate efflux potential were determined using the MDCKII-MDR1 cell line as an in vitro model of the effective permeability of a compound through the BBB. A bidirectional assay (Apical to Basolateral (A→B) and Basolateral to Apical (B→A)), in the absence and in the presence of GF120918 (a P-gp inhibitor) was conducted using pre-plated MDCKII-MDR1 cells (Corning HTS Transwell-96) obtained from SOLVO Biotechnology. The assay was run at 3 μM for 90 min (minutes) in triplicate using a HBSS+12.5 mM HEPES pH 7.4 transport buffer. Following incubation of samples from donor and receiver, wells were removed and measured by LC-MS/MS. Samples were extracted by protein precipitation with acetonitrile containing an appropriate internal standard (IS) having a known mass and molecular weight. The precipitate was centrifuged for 10 min at 3000 rpm (revolutions per minute). The supernatants were then collected, diluted if necessary, and injected on to the LC-MS/MS system. […] Papp (apparent permeability expressed in nm/sec [nanometer/second]) values were calculated according to the following equation: […]
Where dQ/dt is the permeability rate, C0 is the initial concentration in the donor solution (expressed as IS ratio), A and B are the surface areas of the filter (the surface area of the cell monolayer).
Monolayer efflux ratios (ER) were derived using the following equation: […]

[2] = system: human cryopreserved hepatocytes; experiment: Metabolic stability (hepatocytes); format: in vitro ADME; conditions: well-stirred model
Text: Hepatic clearance is expressed as mL/min/kg.

[3] = male, Beagle, in vivo
Experimental: (§1) The protein binding in plasma was determined using a Rapid Equilibrium Dialysis Device (Thermo Scientific RED Device) or 96-well dialyzer apparatus (HTDialysis LLC). […] If required, plasma samples were pre-incubated (2 hours at 37° C.) with diisopropyl fluorophosphate (DFP) at the final concentration of 100 μM to prevent compound degradation due to amide hydrolysis. Appropriate volumes of spiked samples along with blank phosphate buffer were added to either device and incubated at 37° C. for a total of 5 hours with agitation at 500 rpm. Following incubation, an equal aliquot of dialysed matrix (plasma or buffer) is added to an equal volume of the opposite blank matrix such that the volume of buffer to plasma are equal. Mixed matrix samples were extracted by protein precipitation using acetonitrile containing the appropriate IS. Samples were then centrifuged for 10 min at 2800 rpm. Supernatants were collected and diluted and then injected on to an HPLC-MS/MS or UPLC-MS/MS system. Samples were analyzed by monitoring the appropriate parent/daughter ion transitions for the test and control compounds. The peak area ratios were used to measure test item concentrations. The fraction unbound (Afu) was determined as the ratio of the peak area ratio in buffer divided by the peak area ratio in plasma.
The PK properties of test articles were determined in male Sprague-Dawley Crl:CD(SD) rats, male Beagle dogs and male cynomolgus monkeys. […]
Following dose administration, 8-9 serial blood samples were collected over 24 hours. […] The processed supernatant was analyzed using UPLC or LC-MS/MS using specific parent/daughter ion pairs for the test article and IS. Plasma concentrations were determined using a calibration curve prepared using known concentrations of analyte. Pharmacokinetic parameters utilizing measured concentrations were calculated using Phoenix WinNonlin. The unbound plasma clearance was calculated as the ratio of the total body clearance divided by the fraction unbound in plasma.

TNF/zVAD [4] = conditions: dose of 30 mg/kg, Table 2 of WO 2014/125444; cited from earlier work
[5] = system: human cryopreserved hepatocytes; experiment: Metabolic stability (hepatocytes); format: in vitro ADME; conditions: from human CLhep
[6] = male, cynomolgus monkey, in vivo
Experimental: as §1
(§2) The PK properties of test articles were determined in male Sprague-Dawley Crl:CD(SD) rats, male Beagle dogs and male cynomolgus monkeys. Studies were conducted to the highest standards of animal welfare in accordance with national legislation and under approval of the internal animal care and use committees.
(§3) Compounds were administered by IV bolus to animals following an overnight fast. […] The formulations were administered at dose volumes ranging from 0.5-2 mL/kg. The IV dose ranged from 0.5-1 mg/kg.
(§4) Following dose administration, 8-9 serial blood samples were collected over 24 hours. Samples were mixed with anticoagulant and placed on wet ice prior to processing. Plasma was harvested following centrifugation, extracted using protein precipitation with acetonitrile containing IS. The processed supernatant was analyzed using UPLC or LC-MS/MS using specific parent/daughter ion pairs for the test article and IS. Plasma concentrations were determined using a calibration curve prepared using known concentrations of analyte. Pharmacokinetic parameters utilizing measured concentrations were calculated using Phoenix WinNonlin. The unbound plasma clearance was calculated as the ratio of the total body clearance divided by the fraction unbound in plasma.

[7] = male, Sprague-Dawley Crl:CD(SD), in vivo
Experimental: as §1, §2, §3, §4

GST-hRIPK1 (8-327) [8] = target: T1, GST-hRIPK1 (8-327) (Homo sapiens (Human), UniProt Q13546); experiment: Fluorescent Polarization Binding (FP Binding) assay
T1 sequence (Q13546 8-327): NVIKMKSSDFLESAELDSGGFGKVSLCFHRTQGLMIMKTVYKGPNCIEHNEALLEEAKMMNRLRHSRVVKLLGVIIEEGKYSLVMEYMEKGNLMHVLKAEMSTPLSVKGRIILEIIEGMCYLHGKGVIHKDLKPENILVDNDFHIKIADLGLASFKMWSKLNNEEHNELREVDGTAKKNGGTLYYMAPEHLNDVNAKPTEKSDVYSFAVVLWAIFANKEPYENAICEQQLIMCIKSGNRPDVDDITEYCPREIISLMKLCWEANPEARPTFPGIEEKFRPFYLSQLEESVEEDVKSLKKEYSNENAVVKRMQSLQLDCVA
Experimental: Fluorescent Polarization Binding (FP Binding) assay (Berger S. B. et al. […] Maki J. L. et al. […] Test Compounds were serially diluted in DMSO at 100 fold final concentrations in the assay (1% DMSO final). […] For negative control the enzyme addition was replaced by assay buffer only. After addition of 5 μL of fluorescent labeled ligand at twice the final concentrations in assay buffer, the plate was incubated at RT for 30 min.

TNF/zVAD [9] = experiment: TNF-driven systemic inflammatory response syndrome model; format: in vivo; conditions: 5 mg/kg orally 15 minutes before intravenous TNF/zVAD, mice
Text: The in vivo efficacy of compounds can be determined in mice using a TNF-driven systemic inflammatory response syndrome model as described by Duprez et. al. (2011, Immunity 35(6), 908-918) and Berger et. al. (2015, Cell Death Disc. 1, 15009). In this model system TNF/zVAD (tumor necrosis factor/Z-Val-Ala-DL-Asp-fluoromethylketone, a caspase inhibitor) treatment results in temperature loss and the production of several inflammatory cytokines. The ability of a test compound to inhibit these inflammatory effects can be measured in this model by dosing mice with test compound 15 minutes before administration of TNF/zVAD and measuring the inflammatory response. The dose required to inhibit the inflammatory response is a measure of the compounds efficacy at that dose. Using this model, Compound 42 was orally pre-dosed at 5 mg/kg 15 minutes before intravenous administration of TNF/zVAD and temperature loss in the mice was measured by an implanted temperature chip. […] The decrease in dosing has a number of important potential advantages, including requiring less frequent administration to a patient, increased patient compliance, and improved safety profile such as lower toxicities while achieving similar efficacy.

[10] = system: FADD-deficient Jurkat cells; experiment: Cellular necroptosis assay (human TNFα-induced); format: cell-based; conditions: Homo sapiens, 48 h, read-out: Cell IC50
Experimental: Ten concentrations of the test compounds were assessed in duplicate in two different test occasions. […] The day of the experiment cells were diluted to a density of […] (5,000 cells/well) with culture medium and added (40 μL) into the 384-well plate containing 0.2 μL/well of test compounds and reference compounds (CRCs) (200×). Cell plates were then incubated at 37° C.-5% CO2. After 30 min, necroptotic cell death was induced with human TNFα (10 ng/mL) and cell viability was evaluated 48 h later by measuring cellular ATP levels using CellTiter-Glo® kit (Promega). Luminescence was read by using Victor V (Perkin Elmer) multilabel plate reader.

GST-hRIPK1 (8-327) [11] = target: T1, GST-hRIPK1 (8-327); experiment: ADP-Glo kinase assay; format: biochemical; conditions: 50 μM ATP
Experimental: GST-hRIPK1 (8-327) enzyme was generated by Proteros GmbH by Baculovirus expression system.
Test compounds were diluted in DMSO and 0.1 μL of solution was dispensed to each well of a 384-well white solid microplate. The assay buffer was 50 mM HEPES pH 7.5, 50 mM NaCl, 30 mM MgCl2. The buffer was supplemented with 0.02% CHAPS, 0.01% of Pluronic F127, 0.1 mg/mL BSA and 1 mM DTT. MnCl2, 5 mM, was included in the assay buffer on the day of the experiment. The enzymatic reaction comprised 1.5 μg/mL GST-hRIPK1 (8-327) and 50 μM ATP for receptor interacting protein kinase 1 […]. 5 μL of enzyme and 5 μL of ATP were added to the plate at twice the final assay concentration and incubated at room temperature for 3 hours. Following this reaction, 10 μL of ADP-Glo reagent (Promega) was added to each well and incubated for 40 min at room temperature. This stops the kinase reaction and depletes any remaining ATP. […] The luminescence is then measured with the Envision (PerkinElmer) plate reader. Test compound inhibition was expressed as percent inhibition of internal assay controls. For concentration response curves, normalized data is fit and IC50 determined using XL-fit (IDBS) for Excel. […]
Test compound inhibition was expressed as percent inhibition of internal assay controls. For concentration response curves, normalized data is fit and IC50 determined using XL-fit (IDBS) for Excel. […]

[12] = 10 nM GST-hRIPK1 (8-327), 5 nM fluorescent labeled ligand, read-out: FP IC50

Chain of P-gp (P-glycoprotein, MDR1) (P08183 whole entry): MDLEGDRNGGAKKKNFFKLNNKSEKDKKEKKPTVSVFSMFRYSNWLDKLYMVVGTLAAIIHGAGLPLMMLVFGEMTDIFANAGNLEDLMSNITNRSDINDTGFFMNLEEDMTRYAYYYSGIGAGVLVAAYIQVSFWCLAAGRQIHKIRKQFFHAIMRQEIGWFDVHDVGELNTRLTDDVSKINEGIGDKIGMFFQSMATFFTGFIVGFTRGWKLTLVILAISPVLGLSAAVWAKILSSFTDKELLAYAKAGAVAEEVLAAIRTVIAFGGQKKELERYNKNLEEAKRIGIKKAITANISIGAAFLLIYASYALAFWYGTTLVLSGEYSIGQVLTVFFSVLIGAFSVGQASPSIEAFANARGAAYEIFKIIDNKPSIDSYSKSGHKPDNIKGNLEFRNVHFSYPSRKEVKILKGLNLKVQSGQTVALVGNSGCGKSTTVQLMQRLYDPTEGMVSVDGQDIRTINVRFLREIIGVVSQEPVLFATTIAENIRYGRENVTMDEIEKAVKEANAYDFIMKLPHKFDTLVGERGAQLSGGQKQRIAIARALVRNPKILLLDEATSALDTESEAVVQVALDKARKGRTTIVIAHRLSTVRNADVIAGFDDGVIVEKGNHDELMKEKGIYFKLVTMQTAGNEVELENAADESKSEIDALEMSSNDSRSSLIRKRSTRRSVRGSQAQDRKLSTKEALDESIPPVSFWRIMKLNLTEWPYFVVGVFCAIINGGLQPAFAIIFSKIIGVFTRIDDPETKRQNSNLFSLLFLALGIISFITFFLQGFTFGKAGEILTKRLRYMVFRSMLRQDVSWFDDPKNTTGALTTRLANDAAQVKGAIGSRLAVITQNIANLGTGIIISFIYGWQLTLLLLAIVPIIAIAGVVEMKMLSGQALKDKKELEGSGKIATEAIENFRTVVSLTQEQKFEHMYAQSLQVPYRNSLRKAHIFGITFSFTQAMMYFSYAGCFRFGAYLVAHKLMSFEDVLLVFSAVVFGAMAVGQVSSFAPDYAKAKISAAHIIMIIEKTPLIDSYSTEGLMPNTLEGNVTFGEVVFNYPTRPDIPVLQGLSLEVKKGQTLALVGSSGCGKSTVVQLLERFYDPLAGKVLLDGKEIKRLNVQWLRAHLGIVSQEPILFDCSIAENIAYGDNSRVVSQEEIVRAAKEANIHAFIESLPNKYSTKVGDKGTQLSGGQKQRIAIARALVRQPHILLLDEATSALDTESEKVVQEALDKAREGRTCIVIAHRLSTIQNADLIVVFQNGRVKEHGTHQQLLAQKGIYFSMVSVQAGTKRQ

| Compound | efflux ratio at 90 min, 3 μM [1] | Human hepatocyte CLhep Avg [2] [mL/min/kg] | Dog unbound CL [3] [mL/min/kg] | inhibition of temperature loss (TNF/zVAD [4]) [%] | clearance as % of liver blood flow [5] | Cyno unbound CL [6] [mL/min/kg] | Rat unbound CL [7] [mL/min/kg] | IC50 (GST-hRIPK1 (8-327) [8]) [nM] | inhibition of temperature loss (TNF/zVAD [9]) [%] | IC50 [10] [nM] | IC50 (GST-hRIPK1 (8-327) [11]) [nM] | IC50 (GST-hRIPK1 (8-327) [8]; [12]) [nM] |
| --- | --- | --- | --- | --- | --- | --- | --- | --- | --- | --- | --- | --- |
| CN1C(=O)[C@@H](NC(=O)c2nnc(Cc3ccccc3)[nH]2)COc2ccccc21 [A, reference compound] | 6.4 | 6.8 | 240 | 93 | approximately 32% | 117 | 77 |  |  |  |  |  |
| CN1C(=O)[C@@H](NC(=O)c2nnc(Cc3ccccc3)[nH]2)COc2cccnc21 [Example 42, (S)-5-benzyl-N-(5-methyl-4-oxo-2,3,4,5-tetrahydropyrido[3,2-b][1,4]oxazepin-3-yl)-4H-1,2,4-triazole-3-carboxamide] | 19 | 0.8 | 64 |  | less than 4% | 42 | 22 | 0.1 to 1000 | 96 | 0.1 to 1000 |  |  |
| O=C(N[C@H]1COC[C@H]2CCCN2C1=O)c1nnc(Cc2ccccc2)[nH]1 [Example 65, N-[(4S,9aR)-5-oxo-octahydropyrrolo[2,1-c][1,4]oxazepin-4-yl]-5-benzyl-4H-1,2,4-triazole-3-carboxamide] |  |  |  |  |  |  |  |  |  |  | > 10000 |  |
| CN1C(=O)[C@@H](NC(=O)c2nnc(C3(c4ccccc4)CC3)o2)COc2cccnc21 [Example 66, (S)—N-(5-methyl-4-oxo-2,3,4,5-tetrahydropyrido[3,2-b][1,4]oxazepin-3-yl)-5-(1-phenylcyclopropyl)-1,3,4-oxadiazole-2-carboxamide] | 1.6 | 6.3 | 36 |  |  | 116 | 113 |  |  |  |  | 0.1 to 1000 |
| CN1C(=O)[C@@H](NC(=O)c2nnc(Cc3ccccc3)[nH]2)[C@H]2C[C@H]2c2cccnc21 [Example 75A, 5-benzyl-N-((1aS,2S,8bR)-4-methyl-3-oxo-1,1a,2,3,4,8b-hexahydrocyclopropa[d]pyrido[2,3-b]azepin-2-yl)-4H-1,2,4-triazole-3-carboxamide] | 24 | 9.1 |  |  |  | 93 | 91 |  |  |  |  | 0.1 to 1000 |
| O=C(N[C@@H]1C(=O)Nc2c(F)cc(F)cc2[C@@H]2C[C@H]12)c1nnc(Cc2ccccc2)[nH]1 [Example 83A, 5-benzyl-N-((1aS,2S,8bR)-5,7-difluoro-3-oxo-1,1a,2,3,4,8b-hexahydrobenzo[b]cyclopropa[d]azepin-2-yl)-4H-1,2,4-triazole-3-carboxamide] | 29 | 1.0 |  |  |  | 82 | 116 |  |  |  |  | 0.1 to 1000 |
